From patent publication US20210338557A1, “Oxidized Derivatives of GDF-11 Fragments” (Avon Products, Inc., priority 2019, published 2021)
Where a SMILES comes first, the peptide text is derived from it. [ ]: non-standard residue; d: D form. Met(O2) = CS(=O)(=O)CC[CH](N)C(=O)O; Met(O) = CS(=O)CC[CH](N)C(=O)O

How the values were obtained:
[1] = tested on: Human dermal fibroblast cells; test: Collagen (pro-collagen I) secretion by human dermal fibroblasts, HTRF human pro-collagen I kit; format: cell-based; details: 48 h, relative to vehicle control
Protocol: (§1) Human dermal fibroblast cells were grown in a 96 well plate in DMEM media (available from Corning, N.Y.) supplemented with 10% Fetal Bovine Serum (FBS) and L-glutamine (0.07×10^5 cells/plate). After reaching about 75% confluence, cells were transferred into DMEM media without FBS and incubated for 4-6 hours. Next, cells were treated with a peptide or prodrug thereof (MVV, Ac-MVV) or peptide derivative or prodrug thereof (M(O)2VV, Ac-M(O)2VV, Ac-M(O)VV) at 0.00001%, 0.0001%, 0.0005%, or 0.001% final concentration in DMEM media without FBS for 48 h. After treatment, the media were collected and cell viability was measured using MTT. The amount of collagen or hyaluronic acid (HA) secreted was tested in the media using an HTRF human pro-collagen I kit or an HTRF HABP kit, respectively (each available from Cisbio Inc., Bedford, Mass.).
(§2) The results for collagen production following administration to the fibroblasts are summarized in Table 14 as percent change of collagen production for each active relative to vehicle control. p values are given with respect to the change in collagen on the fibroblasts with vehicle control administration or MVV administration.

[2] = tested on: Human dermal fibroblast cells; test: Hyaluronic acid (HA) secretion by human dermal fibroblasts, HTRF HABP kit; format: cell-based; details: 48 h, relative to vehicle control
Protocol: as §1
as §2, with “HA” for “collagen”, “13” for “14”, “with respect to […]” for “MVV”

explanted skin tissue [3] = test: Ex vivo skin explant HA score (alcian blue stain, image analysis); format: cell-based, human; details: for HA score, Mean: days 0, 1, 2, 5, 7
Protocol: (§3) Samples of explanted skin tissue were obtained from an abdominal plasty. Samples (33 in total) were maintained in tissue culture medium at 37° C. in a humid, 5% CO2 atmosphere for the duration of the study.
(§4) The skin tissue explants were then distributed into appropriate controls or treated samples in triplicates. The control received only a vehicle (DMSO), and the treatment samples received vehicle comprising either M(O)2VV or Ac-M(O)2VV at 0.0005%, 0.001%, or 0.01% by weight of the composition. Administration of vehicle or vehicle with the peptide occurred on days 0, 1, 2, 5, and 7.
(§5) Stained tissue sections (in triplicates) were examined for qualitative and semi-qualitative differences between treated and control samples and low and high power using Zeiss Mimax and Midi BF microscope and software system. For HA evaluation, samples were washed and processed with Methylthiazolyldiphenyl-tetrazolium bromide (MTT). MTT is converted to water-insoluble dark blue colored MTT-formazan by mitochondrial dehydrogenases. Subsequently the blue crystals have been solubilized and the color intensity, that is directly proportional to skin vitality, has been measured with a plate reader at a wavelength of 570 nm. For each analyzed skin sample the obtained absorbance value has been normalized upon the weight in grams. Twelve skin suctions were stained with an acian blue stain that dyes acid mucins such as hyaluronan to develop the HA score. Dermal collagen was also measured using a picrosirius red histochemical stain that dyes collagen fibers in purple-red. The papillary dermis was selected for the analysis as thi sis the portion of the dermis more subjected to collagen variation in response to treatment.
(§6) 8-bit grey-scale photomicrographs were captured and transformed from RGB to the standard CIE L*a*b* color space. The L* value for each pixel in the ROI was evaluated using ImageJ software (National Institutes of Health, Bethesda, Md.) with the Color Inspector 3D plug-in. The amount of hyaluron present was evaluated based on the intensity and distribution of blue color in the dermis using an imaging method analogous to that used for procollagen I. Scores reflecting the amount of hyaluronan detected were assigned using an image analysis algorithm proprietary to Cutech Srl. Higher HA scores is indicative of a higher HA content. Similarly, the amount of procollagen I was evaluated based on the intensity and distribution of immunostained procollagen I in the area corresponding to the papillary dermis, just below the epidermis. As above, 8-bit grey-scale photomicrographs were captured and transformed from RGB to the standard CIE L*a*b* color space. The L* value for each pixel in the ROI was evaluated using ImageJ software (National Institutes of Health, Bethesda, Md.) with the Color Inspector 3D plug-in. Scores reflecting the amount of procollagen I detected were assigned using an image analysis algorithm proprietary to Cutech Srl.
Columns marked with “**” were highly significant (p<0.05) with respect to untreated samples and with respect to samples administered vehicle alone (DMSO).

[4] = tested on: Human 3D skin EFT400FT tissues; test: HA production in full thickness 3D skin cultures, HTRF HABP kit; format: cell-based; details: topical daily for 3 days, n=6
Protocol: A series of experiments was conducted to assess the effects of peptide derivatives on the production of hyaluronic acid (HA) on full thickness 3D skin cultures. Five different treatment regimens were assessed: (1) 0.01% by weight M(O)2VV in vehicle; (2) 0.002% by weight M(O)2VV in vehicle; (3) 0.01% by weight Ac-M(O)2VV in vehicle; (4) 0.002% by weight Ac-M(O)2VV in vehicle; and (5) vehicle alone (DMSO). Compositions at the indicated weight percentages in DMSO were applied to 3D skin equivalents daily for 3 consecutive days.
Human 3D skin EFT400FT tissues (MatTek, MA) were cultured following the manufacturer's instructions. Each treatment regimen was topically applied to six 3D skin samples. Different 3D skin samples were assigned to one of treatment regimens (1)-(5) as described above, with six skin tissue models allocated to each treatment regimen (i.e., n=6). Following treatment, media were collected and the amount of hyaluronic acid secreted from the cells was measured using a HTRF HABP kit (available from Cisbio Inc., Bedford, Mass.).
The results for HA production are shown in Table 15. p values are given in relation to administration with vehicle control alone or in relation to MVV.

explanted skin tissue [5] = test: Ex vivo skin explant collagen score (papillary dermis, image analysis); format: cell-based, human; details: for Collagen score, Mean: days 0, 1, 2, 5, 7
Protocol: as §3, §4, §5, §6
Columns marked with “**” were highly significant (p<0.05) with respect to untreated samples and with respect to samples administered vehicle alone (DMSO.

CC(=O)NC(CC[S+](C)[O-])C(=O)NC(C(=O)NC(C(=O)O)C(C)C)C(C)C (stereo not drawn) [Ac-M(O)VV] (Ac-[Met(O)]-Val-Val-OH; configuration not given here)
Collagen % change ([1]; 0.00001 wt %): 7.20% | Collagen % change ([1]; 0.0001 wt %): 4.59% | Collagen % change ([1]; 0.0005 wt %): 14.02% | Collagen % change ([1]; 0.001 wt %): 13.49% | HA % change ([2]; 0.00001 wt %): 17.50% | HA % change ([2]; 0.0001 wt %): 16.95% | HA % change ([2]; 0.0005 wt %): 17.69% | HA % change ([2]; 0.001 wt %): 21.87%

MVV (listed as Homo sapiens) [MW, reference compound]
Collagen % change ([1]; 0.00001 wt %): 7.22% | Collagen % change ([1]; 0.0001 wt %): 10.56% | Collagen % change ([1]; 0.0005 wt %): 31.22% | Collagen % change ([1]; 0.001 wt %): 6.22% | HA % change ([2]; 0.00001 wt %): 5.79% | HA % change ([2]; 0.0001 wt %): 1.63% | HA % change ([2]; 0.0005 wt %): 3.66% | HA % change ([2]; 0.001 wt %): 9.00%

CC(C)C(NC(=O)C(NC(=O)C(N)CCS(C)(=O)=O)C(C)C)C(=O)O (stereo not drawn) [M(O)2VV, methionine sulfone valine valine] (H-[Met(O2)]-Val-Val-OH; configuration not given here)
Collagen % change ([1]; 0.00001 wt %): 5.74% | Collagen % change ([1]; 0.0001 wt %): 12.51% | Collagen % change ([1]; 0.0005 wt %): 1.56% | Collagen % change ([1]; 0.001 wt %): 6.07% | HA score % Change Over DMSO (explanted skin tissue [3]; 5 ppm): 18% | HA score % Change Over Untreated (explanted skin tissue [3]; 5 ppm): 21% | HA score, Mean (explanted skin tissue [3]; 5 ppm in DMSO): 12 | HA score % Change Over DMSO (explanted skin tissue [3]; 10 ppm): 14% | HA score % Change Over Untreated (explanted skin tissue [3]; 10 ppm): 17% | HA score, Mean (explanted skin tissue [3]; 10 ppm in DMSO): 11.6 | HA score % Change Over DMSO (explanted skin tissue [3]; 100 ppm): −4% | HA score % Change Over Untreated (explanted skin tissue [3]; 100 ppm): −1% | HA score, Mean (explanted skin tissue [3]; 100 ppm in DMSO): 9.8 | % HA change ([4]; 0.002% (20 ppm) in DMSO): 6.236% | % HA change ([4]; 0.01% (100 ppm) in DMSO): 10.28% | Collagen score % Change Over DMSO (explanted skin tissue [5]; 5 ppm): −7% | Collagen score % Change Over Untreated (explanted skin tissue [5]; 5 ppm): −25% | Collagen score, Mean (explanted skin tissue [5]; 5 ppm in DMSO): 53.6 | Collagen score % Change Over DMSO (explanted skin tissue [5]; 10 ppm): 35% | Collagen score % Change Over Untreated (explanted skin tissue [5]; 10 ppm): 18% | Collagen score, Mean (explanted skin tissue [5]; 10 ppm in DMSO): 57.9 | Collagen score % Change Over DMSO (explanted skin tissue [5]; 100 ppm): 13% | Collagen score % Change Over Untreated (explanted skin tissue [5]; 100 ppm): −5% | Collagen score, Mean (explanted skin tissue [5]; 100 ppm in DMSO): 55.6 | HA % change ([2]; 0.00001 wt %): 14.01% | HA % change ([2]; 0.0001 wt %): 17.49% | HA % change ([2]; 0.0005 wt %): 10.25% | HA % change ([2]; 0.001 wt %): 19.43%

CC(=O)NC(CCS(C)(=O)=O)C(=O)NC(C(=O)NC(C(=O)O)C(C)C)C(C)C (stereo not drawn) [Ac-M(O)2VV] (Ac-[Met(O2)]-Val-Val-OH; configuration not given here)
Collagen % change ([1]; 0.00001 wt %): 12.29% | Collagen % change ([1]; 0.0001 wt %): 11.29% | Collagen % change ([1]; 0.0005 wt %): −0.56% | Collagen % change ([1]; 0.001 wt %): 13.65% | HA score % Change Over DMSO (explanted skin tissue [3]; 5 ppm): −7% | HA score % Change Over Untreated (explanted skin tissue [3]; 5 ppm): −4% | HA score, Mean (explanted skin tissue [3]; 5 ppm in DMSO): 9.5 | HA score % Change Over DMSO (explanted skin tissue [3]; 10 ppm): 25% | HA score % Change Over Untreated (explanted skin tissue [3]; 10 ppm): 28% | HA score, Mean (explanted skin tissue [3]; 10 ppm in DMSO): 12.7 | HA score % Change Over DMSO (explanted skin tissue [3]; 100 ppm): 9% | HA score % Change Over Untreated (explanted skin tissue [3]; 100 ppm): 12% | HA score, Mean (explanted skin tissue [3]; 100 ppm in DMSO): 11.1 | % HA change ([4]; 0.002% (20 ppm) in DMSO): 1.386% | % HA change ([4]; 0.01% (100 ppm) in DMSO): 12.47% | Collagen score % Change Over DMSO (explanted skin tissue [5]; 5 ppm): 73% | Collagen score % Change Over Untreated (explanted skin tissue [5]; 5 ppm): 57% | Collagen score, Mean (explanted skin tissue [5]; 5 ppm in DMSO): 61.7 | Collagen score % Change Over DMSO (explanted skin tissue [5]; 10 ppm): 75% | Collagen score % Change Over Untreated (explanted skin tissue [5]; 10 ppm): 59% | Collagen score, Mean (explanted skin tissue [5]; 10 ppm in DMSO): 61.9 | Collagen score % Change Over DMSO (explanted skin tissue [5]; 100 ppm): 52% | Collagen score % Change Over Untreated (explanted skin tissue [5]; 100 ppm): 35% | Collagen score, Mean (explanted skin tissue [5]; 100 ppm in DMSO): 59.6 | HA % change ([2]; 0.00001 wt %): 10.33% | HA % change ([2]; 0.0001 wt %): 7.31% | HA % change ([2]; 0.0005 wt %): 7.90% | HA % change ([2]; 0.001 wt %): 11.04%
